Patent publication US8629240B2, “Peptide ligands for clusterin and uses thereof” (National Research Council of Canada, priority 2009, dated 2014)
Ends that are not written are not given here. Peptide text beside a SMILES is read from it. Alexa Fluor 680 C2‑maleimide = near-infrared dye maleimide, coupled by thioether to the C-terminal Cys; DyLight 680 = DyLight 680 fluorophore

Tests used:
4T1 tumor [1] = system: 4T1 tumor
Procedure: As a model system, 4T1 mouse mammary carcinoma cell line cells were used to generate tumors in syngeneic BALB/c mice. […] Six to eight weeks old female BALB/c mice were obtained from Charles River. […] A 50 μl 1:1 solution of sterile Matrigel and saline, or the same solution containing 4T1 mouse mammary tumor cells (5×10^6 cells), was injected subcutaneously into the right hind thigh of the animal. Clippers and Nair were used to remove hair from the injection site as well as the lower back and the left thigh of the animals prior to the Matrigel and tumor cell injections. When tumors measured ˜0.5 to 0.8 cm in diameter (6-8 days), the tumor-bearing mice were subjected to in vivo imaging.
Animals were imaged using the following procedures. Animals were anesthetized using isoflurane (3% in O2 at 2 L/min). Prior to the injection of the labeled peptides, animals were subjected to a full body scan to obtain a background fluorescence image. P3378-Alexa680 or P3378R-Alexa680 was administered (25 nmol in 100 μL sterile saline) via the tail vein using a 0.5-ml insulin syringe with a 27-gauge fixed needle. Immediately after, the animal was placed on the heated animals plate (39° C.) of the ART eXplore Optix MX2 imaging system (Advanced Research Technologies, Montreal, Canada). Laser power and counting time per pixel were optimized at 9.6 μW and 0.5 s, respectively. These values remained constant during the entire experiment. The raster scan interval was set at 1.5 mm and was held constant during the acquisition of each image. The data were recorded as Temporal Point-Spread Functions (TPSF), and fluorescence intensity and fluorescence lifetime maps were generated. All images were analyzed using the ART Optix OptiView™ software. Volume data and 3D images were reconstructed using the ART OptiView™ 3D Reconstruction Software Module. All animals were euthanized after the imaging experiments.
Animals were imaged in the ART Optix MX2 small animal imager using three approaches: • a. Mice were injected intravenously (i.v.) via the tail vein with either 5 nanomoles of P3378 peptide labeled with Alexa680, or P3378R peptide labeled with Alexa680; • b. Mice were injected intravenously (i.v.) via the tail vein with either 25 nanomoles of P3378 peptide labeled with Alexa680, or P3378R peptide labeled with Alexa680; • c.

[2] = biological target: T1, rhCLU (recombinant human clusterin) (Homo sapiens, UniProt P10909); assay: SPR biosensor analysis, rhCLU flowed over immobilized peptide; type: binding; conditions: for binding of rhCLU to immobilized randomized peptide (Scatchard plot): randomized sequence control peptides; for sequence dependence of the interaction with clusterin: concluded from scrambled peptides; for koff / kon: 25° C.
T1 construct: made in house; host or cells: HEK-293 cells
T1 sequence (P10909 23-227 limits assumed): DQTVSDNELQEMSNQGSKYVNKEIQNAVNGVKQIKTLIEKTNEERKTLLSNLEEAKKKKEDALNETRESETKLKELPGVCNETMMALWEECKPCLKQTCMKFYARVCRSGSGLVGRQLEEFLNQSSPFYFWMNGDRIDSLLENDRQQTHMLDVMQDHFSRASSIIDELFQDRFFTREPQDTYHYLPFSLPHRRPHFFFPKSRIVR
T1 sequence (P10909 228-449 limits assumed): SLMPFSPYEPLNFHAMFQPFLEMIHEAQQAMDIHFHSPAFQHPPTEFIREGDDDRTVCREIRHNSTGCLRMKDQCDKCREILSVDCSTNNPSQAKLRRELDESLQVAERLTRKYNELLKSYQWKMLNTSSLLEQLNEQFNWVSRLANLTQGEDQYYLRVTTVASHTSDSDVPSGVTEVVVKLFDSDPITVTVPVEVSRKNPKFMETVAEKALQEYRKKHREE
Text: Peptides were immobilized on research-grade CM5 sensor chips by a maleimide coupling method. CM5 sensor chips (research grade) and EDC were purchased from Biosensor AB (Uppsala, Sweden). This thiol coupling generates a stable thioether bond between reactive maleimide groups on the sensor chip surface and the thiol groups of the peptides. A heterobifunctional reagent, SMCC-hydrazide (4-[N-maleimidomethyl]cyclohexane-1 carboxylhydrazide; 99.5% pure; purchased from Molecular Biosciences Inc. (Boulder, Colo.)), was used to introduce reactive maleimido groups to the sensor surface. Immobilization was performed at 25° C. at a flow rate of 5 μL/min. A continuous flow of the HBS-EP buffer (20 mM HEPES, 150 mM NaCl, 3.4 mM EDTA and 0.05% Tween™-20 at pH 7.4) was maintained over the sensor surface. The carboxylated dextran matrix on the sensor surface was activated by an injection of 50 μL of a freshly mixed solution containing 172 μL of 1.2 mM […] (EDC) in 100 mM MES buffer at pH 5.00, and 28 μL of 17.8 mM SMCC-hydrazide in 40% DMF. The ratio of the SMCC:EDC was 2.5:1. Peptide-coupled surfaces were generated by injecting peptides (30-100 μg/ml) in 100 mM MES buffer (at pH 5.0). The amount of peptide immobilized on the activated surface was controlled by altering the contact time with the peptide solution and was between approximately 400 and 500 RU, or 400-500 pg peptide/mm^2. The immobilization procedure was completed by a 50 μL injection of 50 mM cysteine in 1 M sodium chloride and 0.1M sodium acetate (pH 4) to quench excess active maleimide groups.
Protein-peptide interactions were followed using a BIAcore 3000 instrument (Biosensor AB, Uppsala, Sweden). All binding experiments were carried out at 25° C. under a continuous flow of the HBS-EP buffer (20 mM HEPES, 150 mM NaCl, 3.4 mM EDTA and 0.05% Tween-200) at pH 7.4 over the sensor surface at a flow rate of 20 μL/min. Different concentrations of rh-clusterin in the HBS-EP buffer were injected over the peptide-derivatized sensor chips. Dissociation was monitored for up to 300 s post-injection. The surfaces were fully regenerated by 15 s injection of an HBS-EP buffer solution containing 5 mM NaOH. […] Reference responses from control flow cells, containing unmodified dextran surfaces, were subtracted from peptide-containing flow cells, for each analyte injection using the BiaEvaluation software version 3.0 (Biacore AB, Uppsala, Sweden).
The resulting sensorgrams were used for kinetic rate determination through global fitting of the experimental data to a simple 1:1 Langmuir binding model. […] Affinity data (KD) from the binding studies were obtained by plotting the response in RU at the steady state, Req, versus the concentration of clusterin, C, and by fitting these curves to a one-site binding model, Req=C*xRmax/(C+KD) where Rmax is the value in RU at saturation and Req is the observed optical change in RU at each given C.

[3] = system: 4T1 tumor and organs (liver, spleen, pancreas, kidney, heart, lungs); assay: Confocal microscopy of probe distribution in 4T1 tumor and organs; type: in vivo, mouse
Procedure: Confocal microscopy was used to evaluate the distribution of the P3378-DL680 probe in the 4T1 tumor and various organs (liver, spleen, pancreas, kidney, heart, lungs), harvested 15 min post-injection. […] DAPI staining of the nuclei was used to visualize tissue morphology.

[4] = biological target: T2, epidermal growth factor ectodomain (EGFR-ED) (Homo sapiens, UniProt P00533); assay: SPR specificity test with EGFR ectodomain; type: binding; conditions: EGFR-ED 70 nM to 5.63 μM over immobilized peptide
T2 construct: the epidermal growth factor ectodomain (EGFR-ED)
T2 sequence (P00533 25-645 limits assumed): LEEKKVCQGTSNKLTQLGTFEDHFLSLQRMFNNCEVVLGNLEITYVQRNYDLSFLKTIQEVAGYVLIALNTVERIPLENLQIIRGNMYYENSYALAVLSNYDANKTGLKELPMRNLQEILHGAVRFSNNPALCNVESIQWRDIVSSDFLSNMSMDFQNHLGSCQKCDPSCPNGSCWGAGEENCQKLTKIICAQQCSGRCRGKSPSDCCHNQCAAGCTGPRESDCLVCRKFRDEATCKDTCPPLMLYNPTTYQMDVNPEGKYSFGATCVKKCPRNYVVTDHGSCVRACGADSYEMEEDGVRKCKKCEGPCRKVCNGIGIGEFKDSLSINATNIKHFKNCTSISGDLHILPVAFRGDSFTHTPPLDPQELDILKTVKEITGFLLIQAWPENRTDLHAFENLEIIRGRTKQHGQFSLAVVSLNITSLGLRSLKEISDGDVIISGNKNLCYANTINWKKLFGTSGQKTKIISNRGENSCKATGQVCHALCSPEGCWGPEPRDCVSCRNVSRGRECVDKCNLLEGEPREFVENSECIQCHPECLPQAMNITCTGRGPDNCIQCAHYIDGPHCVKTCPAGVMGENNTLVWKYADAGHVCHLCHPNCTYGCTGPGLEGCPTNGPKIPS
Procedure: (§1) The specificity of the clusterin-peptide interactions was investigated using SPR biosensor analysis and proteins unrelated to clusterin. Immobilization of the peptides and other proteins on the sensor chips and the SPR experiments were conducted as described in Example 4.

4T1 tumor [5] = assay: In vivo blocking experiment with excess unlabeled peptide; parameters: species or system mouse
Procedure: To further validate the specificity of the in vivo targeting ability of the P3378-DL680 probe, a blocking experiment using an excess of unlabeled P3378 peptide was carried out. Mice received 25 nmoles of P3378-DL680 alone (n=1) or in combination with 5 μmoles unlabeled P3378 or P3378R peptide (both n=2) in 100 μL sterile saline. Animals in the control groups received 25 nmoles of P3378-DL680 with or without 5 μmoles of the unlabeled scrambled P3378R peptide, whereas the experimental animals were injected with 25 nmoles of P3378-DL680 in combination with 5 μmoles of unlabeled P3378 peptide. […] Furthermore, using the gated NIRF lifetime and the OptiView 3D reconstruction module we selected in each mouse the slice along the Z-axis that contained the highest concentration of P3378-DL680 and determined its relative concentration.

[6] = biological target: T3, extracellular domain of the Type II TGF-beta receptor (Homo sapiens, UniProt P37173); assay: SPR specificity test with Type II TGF-beta receptor extracellular domain; type: binding; conditions: receptor 38 nM to 4.5 μM over immobilized peptide
T3 construct: the extracellular domain of the Type II TGF-beta receptor
T3 sequence (P37173 23-166 limits assumed): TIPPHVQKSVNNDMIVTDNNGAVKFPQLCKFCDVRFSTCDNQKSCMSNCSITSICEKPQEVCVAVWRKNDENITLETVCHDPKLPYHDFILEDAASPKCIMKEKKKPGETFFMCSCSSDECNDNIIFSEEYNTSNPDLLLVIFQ
Procedure: as §1
FIG. 8 presents SPR biosensor sensorgrams showing the interaction of the extracellular domain of the Type II TGF-beta receptor (38 nM to 4.5 μM) with immobilized P3378 (500 RUs) (FIG. 8A) or P3375 (1200 RUs) (FIG. 8B).

rh-clusterin = biological target: T4, rh-clusterin (Homo sapiens, UniProt P10909); assay: STD-NMR binding of synthetic peptides to rh-clusterin; conditions: ~1:30 protein:peptide, 298K
T4 construct: made in house; host or cells: HEK-293 cells
T4 sequence (P10909 23-227 limits assumed): as the sequence (P10909 23-227 limits assumed) above
T4 sequence (P10909 228-449 limits assumed): as the sequence (P10909 228-449 limits assumed) above
Procedure: To confirm direct binding of the peptides of Example 1 to clusterin, the interaction of the synthetic peptides of Example 2 with clusterin was tested using Nuclear Magnetic Resonance Saturation Transfer Difference (STD-NMR; Mayer & Meyer, 2001)
NMR samples were prepared by dissolving 0.15 mM of peptides in 50 mM sodium phosphate buffer, 0.2 mM EDTA, pH 6.5. rh-clusterin (˜1 mg/ml) in 5 mM sodium phosphate buffer, 0.02 mM EDTA, pH 7.4, was added to ˜1:30 protein:peptide ratio.
All NMR experiments were performed at 298K on a Bruker Avance800™ NMR spectrometer equipped with a 5 mm triple-resonance probe with three-axis gradients. Saturation transfer difference (STD) spectra was recorded using WATERGATE version of STD pulse sequence (35) with a 3 s selective saturation pulse applied in the relaxation delay and a 20 ms spinlock pulse with a field strength of 12.25 kHz. The saturation pulse was implemented using a pulse train of 49 ms Gaussian-shaped selective pulse and 1 ms interpulse delay. Each Gaussian-shaped pulse had 1000 points with a 1% truncation and was applied with a field strength of 75.9 Hz. STD spectra were recorded with a spectral width of 16025.64 Hz and 32 K data points. Time domain signals were accumulated with 1024 and 4096 scans for the free and complexed sample, respectively. NMR data were processed using Bruker Xwinnmr 2.6. An exponential weighting function of 7 Hz was applied prior to Fourier transformation and polynomial baseline correction.
NMR signals of peptide P3378 and rh-clusterin were severely overlapped, making it impossible to apply the above saturation pulse exclusively on rh-clusterin resonances without disturbing those of the peptide. In order to identify the binding interactions in the P3378-rh-clusterin complex, a new experimental scheme was implemented by applying the on-resonance saturation pulse at methyl resonances (0.912 ppm) and the off-resonance irradiation at −7.799 ppm (referenced H2O to 4.700 ppm). […]

[7] = global fit, one-to-one Langmuir binding model

Molecule: P3378-Alexa680: P3378 peptide labeled with Alexa Fluor 680 C2-maleimide (HPLSKHPYWSQPSGSGC(Alexa Fluor 680 C2‑maleimide))
- accumulation in the tumor (as well as kidney and bladder) (4T1 tumor [1]; 5 or 25 nanomoles i.v., Alexa680 label): accumulation

Molecule: AWHTLASTSLAPSGSGC (Randomized control for P3376) [P3376R, randomized version of P3376, reference compound]
- binding of rhCLU to immobilized randomized peptide (Scatchard plot) [2]: bound

Molecule: CC(C)C[C@H](NC(=O)[C@@H]1CCCN1C(=O)[C@@H](N)Cc1c[nH]cn1)C(=O)N[C@@H](CO)C(=O)N[C@@H](CCCCN)C(=O)N[C@@H](Cc1c[nH]cn1)C(=O)N1CCC[C@H]1C(=O)N[C@@H](Cc1ccc(O)cc1)C(=O)N[C@@H](Cc1c[nH]c2ccccc12)C(=O)N[C@@H](CO)C(=O)N[C@@H](CCC(N)=O)C(=O)N1CCC[C@H]1C(=O)N[C@@H](CO)C(=O)NCC(=O)N[C@@H](CO)C(=O)NCC(=O)N[C@@H](CS)C(=O)O [P3378]
- detection in the other organs ([3]; 25 nmoles P3378-DL680, 15 min post-injection, liver, spleen, pancreas, kidney, heart, lungs): could not be detected
- binding to EGFR-ED [4]: do not bind specifically
- AUT/AUN ratio as a function of time: behaviour after the initial accumulation (4T1 tumor [1]; co-injection of P3378-Dylight680 and P3378R-Dylight800, 25 nanomoles each i.v.): remains at the tumor site
- residence at the tumor site (4T1 tumor [1]; co-injection of P3378-Dylight680 and P3378R-Dylight800, 25 nanomoles each i.v., 6 animals): resided much longer at the tumor site
- time post-injection up to which both peptides accumulate at the tumor site at the same rate (4T1 tumor [1]; co-injection, AUT/AUN ratio): ~60 min
- blocking of uptake of P3378-DL680 into the tumor by unlabeled peptide (4T1 tumor [5]; 5 μmoles unlabeled peptide with 25 nmoles P3378-DL680, 15 min post-injection): successfully blocked uptake
- sequence dependence of the interaction with clusterin [2]: sequence dependent
- koff [2, 7]: 0.0052 ± 0.0002 s⁻¹
- kon [2, 7]: 17200 M⁻¹ s⁻¹
- Kd ([2]; global fit, one-to-one Langmuir binding model, read-out: Kd (global kinetic fit)): 300 nM
- interaction with Type II TGF-beta receptor [6]: no significant signal was observed
- binding to clusterin by STD-NMR (rh-clusterin): direct interaction

Molecule: P3378-DL680: P3378 peptide labeled with Dylight680 fluorophor (HPLSKHPYWSQPSGSGC(DyLight 680))
- uptake of the fluorescent probe in the 4T1 tumor ([3]; 25 nmoles, 15 min post-injection, frozen sections): specific uptake and accumulation
- relative concentration of the probe at the tumor site (4T1 tumor [5]; in the presence of excess scrambled P3378R peptide vs probe alone): only slightly affected
- relative concentration of the probe at the tumor site, times lower (4T1 tumor [5]; in the presence of excess unlabeled P3378 peptide vs probe alone): 3-4 times

Molecule: CC(C)C[C@H](NC(=O)[C@H](Cc1ccc(O)cc1)NC(=O)[C@@H]1CCCN1)C(=O)N[C@@H](Cc1c[nH]cn1)C(=O)N[C@@H](CCC(N)=O)C(=O)N[C@@H](CO)C(=O)N1CCC[C@H]1C(=O)N[C@@H](Cc1c[nH]cn1)C(=O)N[C@@H](Cc1c[nH]c2ccccc12)C(=O)N[C@@H](CCCCN)C(=O)N1CCC[C@H]1C(=O)N[C@@H](CO)C(=O)N[C@@H](CO)C(=O)NCC(=O)N[C@@H](CO)C(=O)NCC(=O)N[C@@H](CS)C(=O)O [P3378R, PYLHQSPHWKPSSGSGC, reference compound] (H-PYLHQSPHWKPSSGSGC-OH)
- accumulation in the kidneys (4T1 tumor [1]; mouse, in vivo): faster accumulation

Molecule: LSLYHTNTQFWQSGSGC (Randomized control for P3375) [P3375R, randomized version of P3375, reference compound]
- binding of rhCLU to immobilized randomized peptide (Scatchard plot) [2]: bound

Molecule: CC(C)C[C@H](NC(=O)[C@H](CCC(N)=O)NC(=O)[C@H](CO)NC(=O)[C@H](Cc1c[nH]c2ccccc12)NC(=O)[C@H](Cc1ccc(O)cc1)NC(=O)[C@@H](NC(=O)[C@@H](N)CC(N)=O)[C@@H](C)O)C(=O)N[C@@H](CC(C)C)C(=O)N[C@@H](Cc1c[nH]cn1)C(=O)N[C@@H](Cc1ccccc1)C(=O)N[C@@H](CCC(N)=O)C(=O)N[C@H](C(=O)N[C@@H](CO)C(=O)NCC(=O)N[C@@H](CO)C(=O)NCC(=O)N[C@@H](CS)C(=O)O)[C@@H](C)O [P3375]
- binding to EGFR-ED [4]: do not bind specifically
- sequence dependence of the interaction with clusterin [2]: not peptide sequence specific
- koff [2, 7]: 0.006 ± 0.0002 s⁻¹
- kon [2, 7]: 11200 M⁻¹ s⁻¹
- interaction with Type II TGF-beta receptor [6]: no significant signal was observed
- binding to clusterin by STD-NMR (rh-clusterin): confirmed

Molecule: CC(C)C[C@H](NC(=O)[C@@H]1CCCN1C(=O)[C@H](CC(C)C)NC(=O)[C@H](C)NC(=O)[C@H](Cc1c[nH]cn1)NC(=O)[C@@H](N)CO)C(=O)N[C@H](C(=O)N[C@@H](Cc1c[nH]c2ccccc12)C(=O)N[C@@H](CO)C(=O)N[C@H](C(=O)N[C@@H](C)C(=O)N[C@@H](C)C(=O)N[C@@H](CO)C(=O)NCC(=O)N[C@@H](CO)C(=O)NCC(=O)N[C@@H](CS)C(=O)O)[C@@H](C)O)[C@@H](C)O [P3376, SHALPLTWSTAA]
- sequence dependence of the interaction with clusterin [2]: not peptide sequence specific
- binding to clusterin by STD-NMR (rh-clusterin): confirmed
